Laboratory results reported in patent US9115129B2, “Substituted pyrido[2,3-B]pyrazines as IP receptor agonists” (Novartis AG, priority 2012, dated 2015).

Target: T1, IP receptor (Homo sapiens, UniProt P43119)
T1 construct: expressed in transfected cells; host or cells: CHO cells stably expressing the IP receptor (CHO-IP)
Assay: cAMP accumulation in CHO cells stably expressing the IP receptor (CHO-IP), Perkin Elmer AlphaScreen assay
Assay type: cell-based
Conditions: agonist activity, 1 hour at room temperature
Description: Activity of compounds at the IP receptor (IP receptor) is assessed by measuring cAMP accumulation in CHO cells stably expressing the IP receptor (CHO-IP) using the Perkin Elmer AlphaScreen assay. This technology measures the endogenous production of cAMP, in a non-radioactive luminescence proximity homogenous assay. A biological reaction occurs between streptavidin coated donor beads, biotinylated cAMP and anti-cAMP acceptor beads, bringing the donor and acceptor beads close enough together so that upon excitation a fluorescence signal is produced. On production of endogenous cAMP, competition between the biotinylated cAMP and cellular-derived cAMP causes a reduction in the fluorescent signal. The reduction in signal is proportional to the amount of cAMP being produced, thus it is possible to quantify the amount of cAMP being produced on stimulation with agonist.
Test and reference compounds are prepared at 100× [final] in 100% DMSO, and diluted 1:3 using a Biomek Fx (Beckman Coulter). This is followed by an intermediate dilution to give 5× [final] in assay buffer (HBSS containing 5 mM HEPES, 0.1% (w/v) BSA). 5 μL of 5× [final] test compounds, reference compounds and buffer/DMSO control are then transferred to a 384-well white OptiPlate, containing 20 μL CHO-IP cell suspension (15,000 cells/well, prepared from frozen), and plate is incubated at room temperature for 1 hour. A cAMP standard curve is constructed for each experiment (concentration range of 10000 nM to 0.001 nM, in assay buffer) and 25 μL of each concentration added to the last two columns of the assay plate. The incubation is terminated by the addition of lysis buffer (dH2O; 0.3% (v v^−1) Tween-20) containing 20 units mL^−1 streptavidin coated donor beads and biotinylated cAMP (pre-incubated for 30 minutes) and 20 units mL^−1 anti-cAMP acceptor beads, which are added to the lysis buffer just before addition to the assay plate. The assay plate is then incubated at room temperature in the dark, for 60 minutes with gentle shaking, and read on the Envision plate reader (Perkin Elmer).
The raw data of the reference compounds, test compounds and controls are converted into cAMP concentrations, using the cAMP standard curve, in Graph Pad Prism (Graph Pad Software Inc). EC50 as well as maximal values of the agonist curves are determined using a 4-parameter logistic equation. The % maximum response values of all test compounds are determined using the top of the treprostinil concentration-response curve.

T1 sequence (P43119 whole entry): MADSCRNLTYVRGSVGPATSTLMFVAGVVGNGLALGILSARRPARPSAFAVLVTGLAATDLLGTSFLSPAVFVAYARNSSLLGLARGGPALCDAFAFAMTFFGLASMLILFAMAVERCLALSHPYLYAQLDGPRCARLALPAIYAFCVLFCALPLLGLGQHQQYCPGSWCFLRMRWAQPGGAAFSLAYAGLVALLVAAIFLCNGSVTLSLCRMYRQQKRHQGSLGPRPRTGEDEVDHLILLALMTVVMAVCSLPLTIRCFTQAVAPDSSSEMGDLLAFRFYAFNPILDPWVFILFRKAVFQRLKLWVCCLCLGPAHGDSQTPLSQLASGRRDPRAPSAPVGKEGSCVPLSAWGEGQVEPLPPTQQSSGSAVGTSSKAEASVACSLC

Row | SMILES | EC50 [nM]
1 | Cc1ccc(-c2nc3c(nc2-c2ccc(C)cc2)N(CCCCCCC(=O)O)C(=O)C(O)C3)cc1 (single isomer, unassigned) [11(i), (R)-7-(7-hydroxy-6-oxo-2,3-di-p-tolyl-7,8-dihydropyrido[2,3-b]pyrazin-5(6H)-yl) heptanoic acid or (S)-7-(7-hydroxy-6-oxo-2,3-di-p-tolyl-7,8-dihydropyrido[2,3-b]pyrazin-5(6H)-yl) heptanoic acid] | 0.3
2 | Cc1ccc(-c2nc3c(nc2-c2ccc(C)cc2)N(CCCCC(O)CC(=O)O)CCC3)cc1 (single isomer, unassigned) [Example 17b, (R)-7-(2,3-Di-p-tolyl-7,8-dihydropyrido[2,3-b]pyrazin-5(6H)-yl)-3-hydroxyheptanoic acid or (S)-7-(2,3-Di-p-tolyl-7,8-dihydropyrido[2,3-b]pyrazin-5(6H)-yl)-3-hydroxyheptanoic acid] | 1.8
3 | Cc1ccc(-c2nc3c(nc2-c2ccc(F)cc2)CCCN3CCCCCCC(=O)O)cc1 [Example 2.8, 7-(2-(4-Fluorophenyl)-3-p-tolyl-7,8-dihydropyrido[2,3-b]pyrazin-5(6H)-yl)heptanoic acid] | 0.4
